Data from patent US9662327B2 (AGIOS PHARMACEUTICALS, INC, priority 2011, dated 2017).
pIC50: −log10 of the molar value. Like-named read-outs stand apart in the source and are kept apart here.

Target: IDH1 R132H (Homo sapiens (Human), UniProt O75874, R132H)
Assay: Assays for IDH1 R132H Inhibitors (NADPH/aKG, resazurin detection)
Format: biochemical
Protocol: Assays were conducted in a volume of […] assay buffer (150 mM NaCl, 10 mM MgCl2, 20 mM Tris pH 7.5, 0.03% bovine serum albumin) as follows in a standard 384-well plate: To 25 ul of substrate mix (8 uM NADPH, 2 mM aKG), 1 μl of test compound was added in DMSO. […] The reaction was incubated for 50 minutes at room temperature, then 25 μl of detection mix (30 μM resazurin, […]) was added and the mixture further incubated for 5 minutes at room temperature.

[1] = IDH1 R132H enzyme, Table 2, read-out: IDHR132H Activity

Sequence of IDH1 R132H (O75874 whole entry R132H): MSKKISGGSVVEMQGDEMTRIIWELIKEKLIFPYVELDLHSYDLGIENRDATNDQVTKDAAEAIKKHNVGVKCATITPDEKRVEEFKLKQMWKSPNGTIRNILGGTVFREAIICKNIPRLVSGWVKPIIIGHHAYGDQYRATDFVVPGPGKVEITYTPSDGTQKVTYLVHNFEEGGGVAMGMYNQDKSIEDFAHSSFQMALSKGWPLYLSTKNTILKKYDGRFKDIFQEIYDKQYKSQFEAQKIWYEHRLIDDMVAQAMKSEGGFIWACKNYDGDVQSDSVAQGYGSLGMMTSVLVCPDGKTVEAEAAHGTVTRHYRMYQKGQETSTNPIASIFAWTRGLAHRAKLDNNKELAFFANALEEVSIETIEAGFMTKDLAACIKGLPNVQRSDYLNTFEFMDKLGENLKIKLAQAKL

SMILES	pIC50 [1]	pIC50
CC1CN(c2nc(C3CC3)c3c(c2C#N)CC(C)(C)OC3)CCN1C(=O)c1ccco1 (centres unmarked) [Compound 135, 8-cyclopropyl-6-(4-(furan-2-carbonyl)-3-methylpiperazin-1-yl)-3,3-dimethyl-3,4-dihydro-1H-pyrano[3,4-c]pyridine-5-carbonitrile]	5.00 to 6.00	
CC(C)c1nc(N2CCN(C(=O)c3ccoc3)C(C)C2)c(C#N)c2c1COC(C)(C)C2 (centres unmarked) [Compound 138, 6-(4-(furan-3-carbonyl)-3-methylpiperazin-1-yl)-8-isopropyl-3,3-dimethyl-3,4-dihydro-1H-pyrano[3,4-c]pyridine-5-carbonitrile]	5.00 to 6.00	
CC(C)c1nc(N2CCN(C(=O)c3ccoc3)[C@H](C)C2)c(C#N)c2c1COCC2 [Compound 140, (R)-6-(4-(furan-3-carbonyl)-3-methylpiperazin-1-yl)-8-isopropyl-3,4-dihydro-1H-pyrano[3,4-c]pyridine-5-carbonitrile]	5.00 to 6.00	
N#Cc1c(N2CCN(C(=O)C3CC3)CC2)nc(C2CCCCC2)c2c1CCOC2 [Compound 141, 8-cyclohexyl-6-(4-(cyclopropanecarbonyl)piperazin-1-yl)-3,4-dihydro-1H-pyrano[3,4-c]pyridine-5-carbonitrile]	5.00 to 6.00	
CC1(C)Cc2c(C#N)c(N3CCN(C(=O)c4ccco4)CC3)nc(C3CC3)c2CO1 [Compound 142, 8-cyclopropyl-6-(4-(furan-2-carbonyl)piperazin-1-yl)-3,3-dimethyl-3,4-dihydro-1H-pyrano[3,4-c]pyridine-5-carbonitrile]		5.00 to 6.00
CC(C)c1nc(N2CCN(C(=O)Cc3ccccc3)CC2)c(C#N)c2c1COC(C)(C)C2 [Compound 144, 8-isopropyl-3,3-dimethyl-6-(4-(2-phenylacetyl)piperazin-1-yl)-3,4-dihydro-1H-pyrano[3,4-c]pyridine-5-carbonitrile]	5.00 to 6.00	
CC1CN(c2nc(C3CCCC3)c3c(c2C#N)CC(C)(C)OC3)CCN1C(=O)c1ccco1 (centres unmarked) [Compound 147, 8-cyclopentyl-6-(4-(furan-2-carbonyl)-3-methylpiperazin-1-yl)-3,3-dimethyl-3,4-dihydro-1H-pyrano[3,4-c]pyridine-5-carbonitrile]	5.00 to 6.00	
CC(C)c1nc(N2CCN(C(=O)c3ccco3)[C@H](C)C2)c(C#N)c2c1COC(C)(C)C2 [Compound 148, (R)-6-(4-(furan-2-carbonyl)-3-methylpiperazin-1-yl)-8-isopropyl-3,3-dimethyl-3,4-dihydro-1H-pyrano[3,4-c]pyridine-5-carbonitrile]	5.00 to 6.00	
CC(C)c1nc(N2CCN(C(=O)c3ccoc3)C(c3ccccc3)C2)c(C#N)c2c1COC(C)(C)C2 (centres unmarked) [Compound 155, 6-(4-(furan-3-carbonyl)-3-phenylpiperazin-1-yl)-8-isopropyl-3,3-dimethyl-3,4-dihydro-1H-pyrano[3,4-c]pyridine-5-carbonitrile]	5.00 to 6.00	
CC(C)c1nc(N2CCN(C(=O)C(=O)c3ccccc3)[C@H](C)C2)c(C#N)c2c1COC(C)(C)C2 [Compound 157, (R)-8-isopropyl-3,3-dimethyl-6-(3-methyl-4-(2-oxo-2-phenylacetyl)piperazin-1-yl)-3,4-dihydro-1H-pyrano[3,4-c]pyridine-5-carbonitrile]	5.00 to 6.00	

Second part, the compound after the results:

pIC50 [1]	pIC50	SMILES
5.00 to 6.00		CC1CN(c2nc(C3CC3)c3c(c2C#N)CC(C)(C)OC3)CCN1C(=O)c1ccoc1 (centres unmarked) [Compound 136]
5.00 to 6.00		CC(C)c1nc(N2CCN(C(=O)c3ccco3)C(C)C2)c(C#N)c2c1COC(C)(C)C2 (centres unmarked) [Compound 137, 6-(4-(furan-2-carbonyl)-3-methylpiperazin-1-yl)-8-isopropyl-3,3-dimethyl-3,4-dihydro-1H-pyrano[3,4-c]pyridine-5-carbonitrile]
5.00 to 6.00		CC(C)c1nc(N2CCN(C(=O)c3ccco3)[C@H](C)C2)c(C#N)c2c1COCC2 [Compound 139, (R)-6-(4-(furan-2-carbonyl)-3-methylpiperazin-1-yl)-8-isopropyl-3,4-dihydro-1H-pyrano[3,4-c]pyridine-5-carbonitrile]
5.00 to 6.00		CC1(C)Cc2c(C#N)c(N3CCN(C(=O)c4ccoc4)C(c4ccccc4)C3)nc(C3CCCCC3)c2CO1 (centres unmarked) [Compound 143, 8-cyclohexyl-6-(4-(furan-3-carbonyl)-3-phenylpiperazin-1-yl)-3,3-dimethyl-3,4-dihydro-1H-pyrano[3,4-c]pyridine-5-carbonitrile]
5.00 to 6.00		C[C@@H]1CN(c2nc(C3CCCC3)c3c(c2C#N)CC(C)(C)OC3)C[C@H](C)N1C(=O)c1ccoc1 [Compound 146, 8-cyclopentyl-6-((3S,5R)-4-(furan-3-carbonyl)-3,5-dimethylpiperazin-1-yl)-3,3-dimethyl-3,4-dihydro-1H-pyrano[3,4-c]pyridine-5-carbonitrile]
5.00 to 6.00		CC(C)c1nc(N2CCN(C(=O)c3ccoc3)[C@H](C)C2)c(C#N)c2c1COC(C)(C)C2 [Compound 149, (R)-6-(4-(furan-3-carbonyl)-3-methylpiperazin-1-yl)-8-isopropyl-3,3-dimethyl-3,4-dihydro-1H-pyrano[3,4-c]pyridine-5-carbonitrile]
5.00 to 6.00		C[C@@H]1CN(c2nc(C3CCCCC3)c3c(c2C#N)CC(C)(C)OC3)CCN1C(=O)c1ccco1 [Compound 150, (R)-8-cyclohexyl-6-(4-(furan-2-carbonyl)-3-methylpiperazin-1-yl)-3,3-dimethyl-3,4-dihydro-1H-pyrano[3,4-c]pyridine-5-carbonitrile]
5.00 to 6.00		C[C@@H]1CN(c2nc(C3CCCCC3)c3c(c2C#N)CC(C)(C)OC3)CCN1C(=O)c1ccoc1 [Compound 151, (R)-8-cyclohexyl-6-(4-(furan-3-carbonyl)-3-methylpiperazin-1-yl)-3,3-dimethyl-3,4-dihydro-1H-pyrano[3,4-c]pyridine-5-carbonitrile]
5.00 to 6.00		C[C@@H]1CN(c2nc(C3CCCCC3)c3c(c2C#N)CC(C)(C)OC3)CCN1C(=O)Cc1ccccc1 [Compound 152, (R)-8-cyclohexyl-3,3-dimethyl-6-(3-methyl-4-(2-phenylacetyl)piperazin-1-yl)-3,4-dihydro-1H-pyrano[3,4-c]pyridine-5-carbonitrile]
5.00 to 6.00		C[C@@H]1CN(c2nc(C3CCCCC3)c3c(c2C#N)CC(C)(C)OC3)CCN1C(=O)Cc1cccs1 [Compound 153, (R)-8-cyclohexyl-3,3-dimethyl-6-(3-methyl-4-(2-(thiophen-2-yl)acetyl)piperazin-1-yl)-3,4-dihydro-1H-pyrano[3,4-c]pyridine-5-carbonitrile]
6.00 to 6.30		CC(C)c1nc(N2CCN(C(=O)c3ccco3)C(c3ccccc3)C2)c(C#N)c2c1COC(C)(C)C2 (centres unmarked) [Compound 154, 6-(4-(furan-2-carbonyl)-3-phenylpiperazin-1-yl)-8-isopropyl-3,3-dimethyl-3,4-dihydro-1H-pyrano[3,4-c]pyridine-5-carbonitrile]
5.00 to 6.00		CC1(C)Cc2c(C#N)c(N3CCN(C(=O)c4ccoc4)C(c4ccccc4)C3)nc(C3CC3)c2CO1 (centres unmarked) [Compound 156]
6.00 to 6.30		CC(C)c1nc(N2CCN(C(=O)Cc3cccs3)[C@H](C)C2)c(C#N)c2c1COC(C)(C)C2 [Compound 158, (R)-8-isopropyl-3,3-dimethyl-6-(3-methyl-4-(2-(thiophen-2-yl)acetyl)piperazin-1-yl)-3,4-dihydro-1H-pyrano[3,4-c]pyridine-5-carbonitrile]
